Test results from patent US20080008707A1, “Denatured collagen peptides and uses thereof” (Cell-Matrix, Inc., priority 2006, published 2008).
Square brackets hold non-standard residues; d marks the D form. Ends that are not written are not given here. Hyp = O=C(O)[C@@H]1C[C@@H](O)CN1

How the values were obtained:
[1] = tested on: D93 binding to human denatured-collagen IV; test: Competition ELISA: synthetic peptides blocking D93 binding to heat denatured collagen IV
Protocol: (§1) The ELISA was conducted as follows: wells of a 96-well microtiter plate (Immulon, 4 HBX flat-bottomed, Thermo Electron Corporation, Waltham, Mass.) were coated with 100 μL/well of dn-collagen IV at 10 μg/mL in Phosphate Buffered Saline (PBS) overnight at 4° C. The plate was washed 3 times (3×) with PBS containing 0.05% (v/v) Tween-20 (PBST) using an automated plate washer.
(§2) The plate was blocked by adding 300 μL/well of 1% BSA (w/v) in PBS for 1 hour at 25° C. followed by washing 3× in PBST as above.
(§3) Solutions of D93 or HUI77 were prepared with various concentrations of peptide or antibody inhibitor and incubate for 15 minutes. D93 or HUI77 was prepared at 200 ng/mL in 1% BSA/PBS.
(§4) For antibody blocking studies using synthetic peptides: peptide inhibitor stock solutions were prepared at 2 mM, 0.2 mM, 0.02 mM, and 0.002 mM in 1% BSA/PBS. 500 μL of a 2 mM peptide solution in 1% BSA/PBS was prepared and diluted 1:10 in 500 μL a total of three times to make peptide inhibitor concentrations.
(§5) 200 μL of D93 or HUI77 at 200 ng/mL solution was combined with 200 μL of peptide or antibody inhibitor solution and incubated for 15 minutes at room temperature.
(§6) D93 or HUI77 with various concentrations of inhibitors (2 mM, 0.2 mM, 0.02 mM, and 0.002 mM) were added to microplate wells and incubated for 1 hour at 25° C. The plate was washed 3× in PBST as above.
(§7) To each microtiter plate well, 100 μL of diluted anti-human IgG or anti-mouse IgM conjugated to horseradish peroxidase (HRP) in PBST was added and incubated for one hour at 25° C.: (a) for D93: Goat anti-human IgG-HRP (Jackson ImmunoResearch, Catalog No. 109-035-088) was used at 1:20,000 and (b) for HUI77: Goat anti-mouse IgM-HRP was used at 1:4,000. Plates were washed 3× in PBST as above.
(§8) Tetramethylbenzidine (TMB) substrate (100 μL; Pierce Chemicals)) was added to wells and the plates were allowed to develop at room temperature for 15 minutes in the dark. Substrate development was stopped by adding 50 μL/well of 2N H2SO4. The microtiter […] plates were read at 450 nm within five minutes of adding the H2SO4. Reactivity was measured with a microplate reader (Molecular Devices, Sunnyvale, Calif.) at a wavelength of 450 nm and analyzed using SOFTMax® PRO4.0 (Molecular Devices). All samples were tested in triplicate.
(§9) Individual peptides with amino acid substitutions and deletions were also synthesized based on the primary and secondary peptide arrays. […] The inhibitory activity of the individual peptides was tested by ELISA as previously described to measure binding of D93 or HUI77 to denatured collagen where peptides and antibodies were prepared at a 2× concentration and pre-incubated for 15 minutes prior to adding to microtiter plates coated with dn-collagen.
(§10) 96-well plates were coated with 100 μL/well of denatured (dn) collagen IV at 10 μg/mL in phosphate buffered saline (PBS) overnight at 4° C. followed by washing the plates in an automated plate washer 3 times in PBS containing 0.05% (v/v) Tween-20 (PBST). Non-specific binding was prevented by blocking the wells by adding 300 μL/well of 1% bovine serum albumin (BSA) (w/v) in PBS for 1 hour (hr) at 25° C. The plates were washed as above.
(§11) Solutions of D93 and HUI77 antibodies were prepared with various concentrations of inhibitor and incubated for 15 minutes. Briefly, 20 mLs of D93 or HUI77 were prepared at 200 ng/mL in 1% BSA/PBS. Solutions of peptide inhibitors (2 mM, 0.2 mM, […]) were prepared in 1% BSA/PBS. Equal volumes of antibodies and peptide inhibitors were combined: 200 μL of D93 or HUI77 (200 ng/mL solution) with 200 μL of each peptide solution.
(§12) 100 μL/well of D93 or HUI77 at 100 ng/mL with various concentrations of inhibitors were added to the wells in triplicate and incubated for 1 hour at 25° C. The plates were washed as described above.
(§13) 100 μL/well of secondary horseradish peroxidase (HRP)-conjugated antibody in PBST was added to each well and incubated for 1 hour (hr) at 25° C. […]

[2] = tested on: HUI77 binding to denatured collagen IV; test: Competition ELISA: synthetic peptides blocking HUI77 binding to heat denatured collagen IV; set-up: species or system human
Protocol: as §1, §2, §3, §4, §5, §6, §7, §8, §9, §10, §11, §12, §13

[3] = peptide inhibitor concentration 1 μM, average of two studies, vs 1% BSA/PBS alone
[4] = peptide inhibitor concentration 10 μM, average of two studies, vs 1% BSA/PBS alone
[5] = peptide inhibitor concentration 100 μM, average of two studies, vs 1% BSA/PBS alone
[6] = peptide inhibitor concentration 1000 μM, average of two studies, vs 1% BSA/PBS alone
[7] = peptide inhibitor concentration 10 μM, average of two studies
[8] = peptide inhibitor concentration 100 μM, average of two studies
[9] = peptide inhibitor concentration 1000 μM, average of two studies
[10] = peptide inhibitor concentration 1000 μM, asterisk (*): data from a separate assay

Substance | % INHIBITION OF BINDING OF D93 TO HUMAN DENATURED-COLLAGEN IV [1, 3] [%] | % INHIBITION OF BINDING OF D93 TO HUMAN DENATURED-COLLAGEN IV [1, 4] [%] | % INHIBITION OF BINDING OF D93 TO HUMAN DENATURED-COLLAGEN IV [1, 5] [%] | % INHIBITION OF BINDING OF D93 TO HUMAN DENATURED-COLLAGEN IV [1, 6] [%] | % INHIBITION OF BINDING OF HUI77 TO DENATURED COLLAGEN IV [2, 7] [%] | % INHIBITION OF BINDING OF HUI77 TO DENATURED COLLAGEN IV [2, 8] [%] | % INHIBITION OF BINDING OF HUI77 TO DENATURED COLLAGEN IV [2, 9] [%] | other results
LPGTPG (L[Hyp]GT[Hyp]G) [SEQ ID NO: 27] | 7 | 2 | 4.5 | 24 | 3.5 | 4.5 | 6 | –
LPGPPGPPGPY [SEQ ID NO: 19] | – | – | – | – | – | – | – | % INHIBITION OF BINDING OF D93 TO HUMAN DENATURED-COLLAGEN IV ([1]; peptide inhibitor concentration 1 μM, average of two studies, vs 1% BSA/PBS alone, listed as 11 (19), 1 µM): 32%; % INHIBITION OF BINDING OF D93 TO HUMAN DENATURED-COLLAGEN IV ([1]; peptide inhibitor concentration 10 μM, average of two studies, vs 1% BSA/PBS alone, listed as 11 (19), 10 µM): 83%; % INHIBITION OF BINDING OF D93 TO HUMAN DENATURED-COLLAGEN IV ([1]; peptide inhibitor concentration 100 μM, average of two studies, vs 1% BSA/PBS alone, listed as 11 (19), 100 µM): 93.5%; % INHIBITION OF BINDING OF D93 TO HUMAN DENATURED-COLLAGEN IV ([1]; peptide inhibitor concentration 1000 μM, average of two studies, vs 1% BSA/PBS alone, listed as 11 (19), 1000 µM): 93.5%; % INHIBITION OF BINDING OF HUI77 TO DENATURED COLLAGEN IV ([2]; peptide inhibitor concentration 10 μM, average of two studies, listed as 11 (19), 10 µM): 6.5%; % INHIBITION OF BINDING OF HUI77 TO DENATURED COLLAGEN IV ([2]; peptide inhibitor concentration 100 μM, average of two studies, listed as 11 (19), 100 µM): 18.5%; % INHIBITION OF BINDING OF HUI77 TO DENATURED COLLAGEN IV ([2]; peptide inhibitor concentration 1000 μM, average of two studies, listed as 11 (19), 1000 µM): 87%
LPGSPG (L[Hyp]GS[Hyp]G) [SEQ ID NO: 26] | 9.5 | 3.5 | 2.5 | 13.5 | 8 | 10.5 | 8.5 | –
LPGFPGC [SEQ ID NO: 37, reference compound] | 8 | 3.5 | 1 | 6.5 | 7 | 7.5 | 8.5 | –
CTWPRHHTTDALL [SEQ ID NO: 39, reference compound] | 4.5 | 1 | 0 | 3.5 | 6.5 | 6.5 | 6.5 | % INHIBITION OF BINDING OF D93 TO HUMAN DENATURED-COLLAGEN IV [1, 10]: 4.9%; % INHIBITION OF BINDING OF HUI77 TO DENATURED COLLAGEN IV [2, 10]: 11.1%
GPPG [SEQ ID NO: 35] | 7 | 6 | 3.5 | 7.5 | 2.5 | 8 | 3.5 | –
L-Hyp-G-F-Hyp-G (L[Hyp]GF[Hyp]G) [SEQ ID NO: 23] | 10.5 | 6 | 8 | 32 | 7 | 14.5 | 75 | –
GPPGPPG [SEQ ID NO: 33] | – | – | – | – | – | – | – | % INHIBITION OF BINDING OF D93 TO HUMAN DENATURED-COLLAGEN IV ([1]; peptide inhibitor concentration 1 μM, average of two studies, vs 1% BSA/PBS alone, listed as 23 (33), 1 µM): 5%; % INHIBITION OF BINDING OF D93 TO HUMAN DENATURED-COLLAGEN IV ([1]; peptide inhibitor concentration 10 μM, average of two studies, vs 1% BSA/PBS alone, listed as 23 (33), 10 µM): 4.5%; % INHIBITION OF BINDING OF D93 TO HUMAN DENATURED-COLLAGEN IV ([1]; peptide inhibitor concentration 100 μM, average of two studies, vs 1% BSA/PBS alone, listed as 23 (33), 100 µM): 1.5%; % INHIBITION OF BINDING OF D93 TO HUMAN DENATURED-COLLAGEN IV ([1]; peptide inhibitor concentration 1000 μM, average of two studies, vs 1% BSA/PBS alone, listed as 23 (33), 1000 µM): 6.5%; % INHIBITION OF BINDING OF HUI77 TO DENATURED COLLAGEN IV ([2]; peptide inhibitor concentration 10 μM, average of two studies, listed as 23 (33), 10 µM): 1.5%; % INHIBITION OF BINDING OF HUI77 TO DENATURED COLLAGEN IV ([2]; peptide inhibitor concentration 100 μM, average of two studies, listed as 23 (33), 100 µM): 2%; % INHIBITION OF BINDING OF HUI77 TO DENATURED COLLAGEN IV ([2]; peptide inhibitor concentration 1000 μM, average of two studies, listed as 23 (33), 1000 µM): 1%
LPGLPG (L[Hyp]GL[Hyp]G) [SEQ ID NO: 25] | 8 | 6.5 | 6.5 | 46.5 | 6 | 9.5 | 17.5 | –
GPPGPPGP (GPXGPXGP; MOD_RES (3) Hydroxyproline; MOD_RES (6) Hydroxyproline) [SEQ ID NO: 31] | 9.5 | 21 | 77 | 92.5 | 7.5 | 12 | 44 | –
PGPPGPPGP (PGP[Hyp]GP[Hyp]GP) [SEQ ID NO: 29] | 11.5 | 40.5 | 87.5 | 93.5 | 10.5 | 12.5 | 63 | –
